US12600740B2, “Fluorinated N-acetyl glucosamine analogs and xylose derivatives” (UTI Limited Partnership, priority 2018, dated 2026)
Entries after “also recorded” stand apart in the source; their conditions may differ.

How the values were obtained:
[1] = tested on: mice demyelinated with lysolecithin; experiment: Lysolecithin demyelination of the mouse spinal cord; format: in vivo; conditions: 100 mg/kg IP twice a day, Day 3 to Day 6; Day 7 post-demyelination; listed as difluorosamine
Description: On Day 0, 7 mice were injected with 0.5 μL of 1.0% lysolecithin in the ventral funiculus of the spinal cord. Thereafter, 4 mice were treated from Day 3 to Day 6 with saline vehicle IP twice a day. 3 mice were treated from Day 3 to Day 6 with difluorosamine 100 mg/kg IP twice a day. On Day 7, mice were transcardially perfused with cold PBS and 4% PFA. Thoracic spinal cords were dissected, fixed and analyzed. Sections adjacent to lesion epicenters were triple-stained for Olig2 (cells of the oligodendrocyte lineage), PDGFRα (oligodendrocyte precursor cell) and MBP (myelin). The number of Olig2+, Olig2+ PDGFRα+ (oligodendrocyte precursor cell), and Olig2+ PDGFRα− (presumed mature oligodendrocytes) cells per field of view were quantified blindly. Statistics were conducted using 1-tailed t-tests.

[2] = tested on: CSPG production by astrocytes; experiment: Western blot of astrocyte conditioned medium, MAB2030 (chondroitin sulfate GAG stubs); format: cell-based, mouse; conditions: astrocyte conditioned media, 50 μM, 48 hours
Excerpt: Astrocytes are major producers of CSPGs following injury in the CNS [Jones, L. L., Margolis, R. U. & Tuszynski, M. H. The chondroitin sulfate proteoglycans neurocan, brevican, phosphacan, and versican are differentially regulated following spinal cord injury. Experimental Neurology 182, 399-411 (2003); Tang, X., Davies, J. E. & Davies, S. J. Changes in distribution, cell associations, and protein expression levels of NG2, neurocan, phosphacan, brevican, versican V2, and tenascin-C during acute to chronic maturation of spinal cord scar tissue. […] The Journal of neuroscience: the official journal of the Society for Neuroscience 20, 2427-2438 (2000); McKeon, R. J., Jurynec, M. J. & Buck, C. R. The chondroitin sulfate proteoglycans neurocan and phosphacan are expressed by reactive astrocytes in the chronic CNS glial scar. The Journal of neuroscience: the official journal of the Society for Neuroscience 19, 10778-10788 (1999); Haas, C. A., Rauch, U., Thon, N., Merten, T. & Deller, T. Entorhinal cortex lesion in adult rats induces the expression of the neuronal chondroitin sulfate proteoglycan neurocan in reactive astrocytes. The Journal of neuroscience: the official journal of the Society for Neuroscience 19, 9953-9963 (1999)] and they may help drive progression of disability in a model of progressive MS [Mayo, L. et al. Regulation of astrocyte activation by glycolipids drives chronic CNS inflammation. Nature medicine 20, 1147-1156 (2014)]. Therefore astrocytes were used as model cells to determine the ability of the sugar analogs to reduce synthesis of CSPGs. Since CSPGs are exported out of cells, the conditioned media from analog-treated astrocytes were probed by Western blots (FIG. 4). We used antibodies to both the stubs of chondroitin sulfate GAGs attached to the core protein (MAB2030) and to intact 4-sulfated chondroitin sulfate sidechains (2H6) (FIG. 4a). Particularly, we used the 2H6 antibody to label intact 4-sulfated chondroitin sulfate sidechains, and the MAB2030 antibody to detect the stubs of chondroitin sulfate GAGs attached to the core protein. […] 1998, 160 (8), 3812-3819. Poole Poole C. A.; Glant T. T.; Schofield J. R.; Chondrons from articular cartilage. (IV). Immunolocalization of proteoglycan epitopes in isolated canine tibial chondrons. J. Histochem. Cytochem. 1991, 39 (9), 1175-1187].
Astrocytes were plated in uncoated 6-well plates (3 replicate wells per treatment) at 1×10^6 cells/well in mixed glial media, and incubated at 5% CO2 and 37° C. Astrocytes were treated with compounds at 50 μM in AIM-V media for 48 hours. Media was pooled from 3 replicate wells in 15 ml 100K cutoff centricon tubes (EMD Millipore, #UFC905008), which were spun on an ultracentrifuge at 5000× g for 2 cycles of 10 minutes each. When harvested, the cell lysate was kept on ice for 5 minutes with 250 μL of RIPA buffer (ThermoFisher Scientific #89900) containing proteinase inhibitor, and then collected and centrifuged at 14000 g for 5 minutes. Total protein was quantified using a Bradford assay. Conditioned media that were to be probed for chondroitin 4-sulfate GAGs (Millipore, #MAB2030) were first digested with 0.2 U/ml chondroitinase ABC for overnight at 37° C. to remove chondroitin sulfate sidechains. Blots that were to be probed with CSA (2H6, Cosmo) or CS56 (Abcam #ab11570) were not exposed to chondroitinase ABC. Samples were heat denatured with NuPAGE® LDS Sample buffer at 70° C. for 10 minutes and then loaded into 3-8% tris-acetate pre-cast gels (ThermoFisher, #EA0478BOX). The gels were electrophoresed at a constant 150 V for 90 minutes and transferred to a […] polyvinylidene fluoride membrane at a constant 250 mA for 60 minutes. The membranes were blocked for one hour with 10% skim milk in Tris-buffered saline (TBS; 0.9% NaCl, 10 mM Tris-HCl, pH 7.5) containing 0.5% Tween 20 (TBS-T). Primary antibodies were added in 3% skim milk and incubated overnight at 4° C. […]

splenocytes [3] = experiment: Splenocyte thymidine proliferation assay (anti-CD3/anti-CD28); format: cell-based, mouse; conditions: 25 μM, 48 hours
Description: It was assessed whether the glucosamine analogs have immunomodulatory properties on splenocytes isolated in culture. T cells within the splenocyte pool were polyclonally activated with anti-CD3 and anti-CD28 antibodies in the presence of compounds for 48 hours, and proliferation was determined by the uptake of tritiated thymidine and expressed as counts per minute. The relative change in proliferation of treated versus control splenocytes was taken in order to rank the compounds across multiple independent experiments (FIG. 8a).
The spleens were isolated from 8-10-week-old female C57BL/6 mice and homogenized. The cells were isolated by Ficoll gradient and spun for 30 min at 1,800 r.p.m. The cell suspension was removed and the cells were washed once with PBS. The cell pellet was subsequently re-suspended in Roswell Park Memorial Institute media containing 10% fetal bovine serum, 1% penicillin/streptomycin, 1% sodium pyruvate and 1% L-glutamine. Trypan blue exclusion was used to count live cells, and the cells were plated at 2.5×10^5 cells per well in a round-bottom 96-well plate and activated with 1,000 ng/ml plate-bound anti-CD3 and 1,000 ng/ml anti-CD28 suspended in media to preferentially activate T lymphocytes. Compounds were added at final concentrations of 25 μM. The cells were kept at 37° C. and 5% CO2 for 30 h, after which 10 μl/well (1 μCi per well) of 3H-thymidine was added for 18 h. The cells containing thymidine were harvested onto filter mats using a cell harvester and mats were allowed to dry for 24 h. The results were read by liquid scintillation counts.

TNFα = TNFα ELISA of LPS-stimulated bone marrow-derived macrophages; format: cell-based, mouse; conditions: BMDMs, 50 μM, LPS 100 ng/ml, 24 hours
Description: Multiple Sclerosis: Mechanisms and Immunotherapy. Neuron 97, 742-768 (2018)]. It was tested whether the sugar analogs could affect the activity of macrophages, using bone marrow-derived macrophages (BMDMs) stimulated with lipopolysaccharide (LPS, 100 ng/ml). The sugar analogs were added at 50 μM prior to LPS, and the conditioned medium was collected after 24 hours and assayed for levels of the secreted cytokine TNFα. […] Testing Toxicity of Sugar Analogs
Femurs were carefully removed from euthanized female C57BI/6 mice, and marrow was flushed into a culture plate with cold complete bone marrow growth medium (DMEM, 10% fetal bovine serum, and the supplements 1% penicillin/streptomycin, 1% glutamine, 1% non-essential amino acids, and 10% supernatant from L929 cell-line enriched in macrophage-colony stimulating factor). Cells were spun at 1100 rpm for 10 minutes, resuspended in fresh growth medium and plated at 10×10^6 cells/ml in a 10 cm culture dish. Cells were grown in DMEM with supplements and L929 supernatant for 5 days, then half the medium was replaced with fresh growth medium. On day 7 growth medium was replaced with DMEM with 10% FBS and supplements. Cells were used on day 8, and experiments were conducted in DMEM with 1% FBS and supplements unless otherwise specified.
BMDM were plated at 25,000 cells in 96-well plates in DMEM+L929 media. After 24 hours media was changed to DMEM+1% FBS. One hour later, cells were treated with […] compounds or PBS. After 1 hour LPS (final concentration 100 ng/ml) was added. Following 24 hours, conditioned media was harvested for TNFα ELISA (Thermo Scientific), which was performed according to manufacturer's instructions.

splenocytes [4] = experiment: Propidium iodide DNA cell cycle flow cytometry of splenocytes; format: cell-based, mouse; conditions: activated splenocytes
Excerpt: Cell-cycle flow cytometry with propidium iodide was used to corroborate the above results, and ensure the reduction in proliferation was not due to cell death. […] To further investigate whether the reduction of proliferation was due to cell death, Annexin V and propidium iodide staining were used to differentiate necrotic cells (propidium iodide+), apoptotic cells (annexin V+), dead cells (propidium iodide+ and annexin V+), and live cells (propidium iodide-annexin V−).
Cell cycle staining with propidium iodide (PI) and analysis by flow cytometry gives percentage of cells in apoptosis, G1, G2, and synthesis, and apoptosis. Following a membrane permeabilization, PI chelates to DNA and level of staining specifies the stage of the cell cycle (e.g., G2 phase will have twice the DNA and thus twice the PI signal as G1 phase, apoptotic cells contain less DNA than healthy cells and are identified by low PI staining). 1×10^6 splenocytes were used per sample, with four replicates per condition. Cells were collected into a tube with PBS and centrifuged (200 r.p.m. for 5 minutes). […] Suspension was transferred to a FACs tube and analyzed. Annexin V/Propidium iodide staining was detected using the Annexin V FITC apoptosis detection kit (BD Biosciences, #556547), which was performed according to manufacturer's instructions.

`CC(=O)NC1C(OC(C)=O)OC(COC(C)=O)C(F)(F)C1OC(C)=O` [Compound 16, 2-Acetamido-1,3,6-tri-O-acetyl-2,4-dideoxy-4,4-difluoro-α/β-D-xylo-hexopyranose] was tested, and the “percentage of Olig2+ oligodendrocyte lineage cells that are Olig2+ PDGFRα+ OPCs” value [1] was “significant increase; also recorded: increased the proportion of oligodendrocyte precursor cells (OPCs)”.
`CCC(=O)OCC1OC(O)C(NC(C)=O)C(OC(=O)CC)[C@@H]1F` (mixture of isomers) [Compound 11, 2-Acetamido-2,4-dideoxy-4-fluoro-3,6-di-O-propanoyl-α/β-D-glucopyranose] was tested, and the “effect on CSPG production by astrocytes” value [2] was “did not lower CSPG production in astrocytes”, the splenocyte proliferation (splenocytes [3]) was “reduced splenocyte proliferation” and the “TNFα production by LPS-stimulated macrophages” value (TNFα) was “enhanced TNFα levels”.
In the case of `CC(=O)NC1C(O)OC(COC(C)=O)[C@@H](F)C1OC(C)=O` (stereo in doubt) [Compound 10], the “percentage of cells in cell cycle phases” value (splenocytes [4]) is reported as “reduced the percentage of cells in the S (DNA synthesis)-phase of the cell cycle”.
